Test results as given in the kinase profiling compilation of Christmann-Franck et al. (2016).
Several values for one entry are separate records, joined by “and”; a condition that tells them apart may be missing. Equal values may be shown once.

Columns and labels:
PI4KA (human) = PI4KA (human) (UniProt P42356)
PIK3C2B (human) = PIK3C2B (human) (UniProt O00750)
PIK3C2A (human) = PIK3C2A (human) (UniProt O00443)
PI4KB (human) = PI4KB (human) (UniProt Q9UBF8)
PIK3C3 (human) = PIK3C3 (human) (UniProt Q8NEB9)
PRKCZ (human) = PRKCZ (human) (UniProt Q05513)
[1] = test system: SGK1 (human), O00141 [S422D]
SGK1 (human), O00141 [S422D], sequence (O00141 whole entry S422D, looked up): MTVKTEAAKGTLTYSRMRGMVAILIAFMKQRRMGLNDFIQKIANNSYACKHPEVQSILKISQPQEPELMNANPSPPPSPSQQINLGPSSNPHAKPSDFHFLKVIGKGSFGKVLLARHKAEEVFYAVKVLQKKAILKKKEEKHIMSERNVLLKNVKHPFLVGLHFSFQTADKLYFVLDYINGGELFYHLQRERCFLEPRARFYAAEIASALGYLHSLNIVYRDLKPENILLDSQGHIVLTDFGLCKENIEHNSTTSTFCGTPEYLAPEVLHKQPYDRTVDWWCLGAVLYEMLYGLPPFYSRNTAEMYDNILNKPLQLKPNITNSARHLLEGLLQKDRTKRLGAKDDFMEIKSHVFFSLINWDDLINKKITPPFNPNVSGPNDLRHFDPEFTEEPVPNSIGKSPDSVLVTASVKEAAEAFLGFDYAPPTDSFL

MKNK1 (human) = MKNK1 (human) (UniProt Q9BUB5)
MKNK2 (human) = MKNK2 (human) (UniProt Q9HBH9)
MKNK2 (human), sequence (Q9HBH9 whole entry, looked up): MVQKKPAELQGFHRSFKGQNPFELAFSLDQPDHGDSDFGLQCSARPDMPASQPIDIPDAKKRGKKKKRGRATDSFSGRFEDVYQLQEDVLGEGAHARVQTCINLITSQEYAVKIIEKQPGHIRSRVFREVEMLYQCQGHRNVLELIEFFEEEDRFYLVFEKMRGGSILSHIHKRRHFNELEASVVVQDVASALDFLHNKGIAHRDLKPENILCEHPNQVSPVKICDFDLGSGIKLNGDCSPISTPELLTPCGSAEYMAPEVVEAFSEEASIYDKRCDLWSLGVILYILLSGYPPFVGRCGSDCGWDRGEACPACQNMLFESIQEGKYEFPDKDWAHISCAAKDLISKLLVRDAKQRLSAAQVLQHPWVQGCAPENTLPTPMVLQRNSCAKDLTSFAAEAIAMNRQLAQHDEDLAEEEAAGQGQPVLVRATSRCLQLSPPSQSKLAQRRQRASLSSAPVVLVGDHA

DYRK3 (human) = DYRK3 (human) (UniProt O43781)
MELK (human) = MELK (human) (UniProt Q14680)
NEK2 (human) = NEK2 (human) (UniProt P51955)
NEK2 (human), sequence (P51955 whole entry, looked up): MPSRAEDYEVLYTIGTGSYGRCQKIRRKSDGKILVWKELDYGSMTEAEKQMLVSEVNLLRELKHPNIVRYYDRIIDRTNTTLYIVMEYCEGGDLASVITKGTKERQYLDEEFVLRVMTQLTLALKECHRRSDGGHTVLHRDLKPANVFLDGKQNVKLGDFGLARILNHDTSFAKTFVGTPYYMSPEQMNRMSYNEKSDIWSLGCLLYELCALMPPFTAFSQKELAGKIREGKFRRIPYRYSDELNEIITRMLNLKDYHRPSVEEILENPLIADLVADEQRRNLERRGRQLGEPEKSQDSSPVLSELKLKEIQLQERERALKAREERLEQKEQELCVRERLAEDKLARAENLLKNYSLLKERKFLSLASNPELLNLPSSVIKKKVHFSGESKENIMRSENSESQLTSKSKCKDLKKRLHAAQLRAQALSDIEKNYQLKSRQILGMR

PDPK1 (human) = PDPK1 (human) (UniProt O15530)
PDPK1 (human), sequence (O15530 whole entry, looked up): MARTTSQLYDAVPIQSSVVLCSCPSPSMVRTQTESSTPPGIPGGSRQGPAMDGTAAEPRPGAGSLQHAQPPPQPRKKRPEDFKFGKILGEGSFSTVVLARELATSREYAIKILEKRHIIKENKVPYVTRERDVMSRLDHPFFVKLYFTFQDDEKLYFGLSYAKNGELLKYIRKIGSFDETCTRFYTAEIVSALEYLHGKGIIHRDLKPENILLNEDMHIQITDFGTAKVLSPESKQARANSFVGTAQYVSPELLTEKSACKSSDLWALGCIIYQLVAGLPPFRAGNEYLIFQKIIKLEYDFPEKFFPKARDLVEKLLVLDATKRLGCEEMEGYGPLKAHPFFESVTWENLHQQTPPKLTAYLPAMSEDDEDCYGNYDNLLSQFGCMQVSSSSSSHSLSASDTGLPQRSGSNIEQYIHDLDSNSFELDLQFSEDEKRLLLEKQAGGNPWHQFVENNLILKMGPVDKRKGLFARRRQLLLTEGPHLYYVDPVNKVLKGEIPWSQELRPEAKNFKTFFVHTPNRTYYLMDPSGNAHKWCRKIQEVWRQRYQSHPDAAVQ

CHEK2 (human) = CHEK2 (human) (UniProt O96017)
CSK (human) = CSK (human) (UniProt P41240)
RPS6KA5 KD1 KD2 (human) = RPS6KA5 KD1 KD2 (human) (UniProt O75582)
DYRK1A (human) = DYRK1A (human) (UniProt Q13627)
CaMK1 (human) = CaMK1 (human) (UniProt Q14012)
PAK7 (human) = PAK7 (human) (UniProt Q9P286)
PAK7 (human), sequence (Q9P286 whole entry, looked up): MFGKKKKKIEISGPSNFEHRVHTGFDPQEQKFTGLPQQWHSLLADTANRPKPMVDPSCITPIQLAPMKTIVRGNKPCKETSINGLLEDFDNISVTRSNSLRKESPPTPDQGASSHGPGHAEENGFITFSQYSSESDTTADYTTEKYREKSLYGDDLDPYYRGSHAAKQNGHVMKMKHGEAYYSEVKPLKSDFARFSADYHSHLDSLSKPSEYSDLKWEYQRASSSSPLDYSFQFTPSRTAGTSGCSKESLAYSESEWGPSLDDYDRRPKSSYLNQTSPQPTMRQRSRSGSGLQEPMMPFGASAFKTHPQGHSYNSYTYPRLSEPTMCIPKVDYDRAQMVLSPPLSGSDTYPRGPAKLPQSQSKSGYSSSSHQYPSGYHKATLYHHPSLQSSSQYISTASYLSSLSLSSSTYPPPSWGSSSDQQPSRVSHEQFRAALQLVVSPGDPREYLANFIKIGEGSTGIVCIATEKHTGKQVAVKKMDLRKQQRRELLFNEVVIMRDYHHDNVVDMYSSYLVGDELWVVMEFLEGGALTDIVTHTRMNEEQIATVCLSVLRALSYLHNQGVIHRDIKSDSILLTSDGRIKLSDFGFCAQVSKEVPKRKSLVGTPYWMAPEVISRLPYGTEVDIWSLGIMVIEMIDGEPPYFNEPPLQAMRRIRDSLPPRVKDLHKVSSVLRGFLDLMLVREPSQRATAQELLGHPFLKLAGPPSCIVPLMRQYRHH

INSRR (human) = INSRR (human) (UniProt P14616)
INSRR (human), sequence (P14616 whole entry, looked up): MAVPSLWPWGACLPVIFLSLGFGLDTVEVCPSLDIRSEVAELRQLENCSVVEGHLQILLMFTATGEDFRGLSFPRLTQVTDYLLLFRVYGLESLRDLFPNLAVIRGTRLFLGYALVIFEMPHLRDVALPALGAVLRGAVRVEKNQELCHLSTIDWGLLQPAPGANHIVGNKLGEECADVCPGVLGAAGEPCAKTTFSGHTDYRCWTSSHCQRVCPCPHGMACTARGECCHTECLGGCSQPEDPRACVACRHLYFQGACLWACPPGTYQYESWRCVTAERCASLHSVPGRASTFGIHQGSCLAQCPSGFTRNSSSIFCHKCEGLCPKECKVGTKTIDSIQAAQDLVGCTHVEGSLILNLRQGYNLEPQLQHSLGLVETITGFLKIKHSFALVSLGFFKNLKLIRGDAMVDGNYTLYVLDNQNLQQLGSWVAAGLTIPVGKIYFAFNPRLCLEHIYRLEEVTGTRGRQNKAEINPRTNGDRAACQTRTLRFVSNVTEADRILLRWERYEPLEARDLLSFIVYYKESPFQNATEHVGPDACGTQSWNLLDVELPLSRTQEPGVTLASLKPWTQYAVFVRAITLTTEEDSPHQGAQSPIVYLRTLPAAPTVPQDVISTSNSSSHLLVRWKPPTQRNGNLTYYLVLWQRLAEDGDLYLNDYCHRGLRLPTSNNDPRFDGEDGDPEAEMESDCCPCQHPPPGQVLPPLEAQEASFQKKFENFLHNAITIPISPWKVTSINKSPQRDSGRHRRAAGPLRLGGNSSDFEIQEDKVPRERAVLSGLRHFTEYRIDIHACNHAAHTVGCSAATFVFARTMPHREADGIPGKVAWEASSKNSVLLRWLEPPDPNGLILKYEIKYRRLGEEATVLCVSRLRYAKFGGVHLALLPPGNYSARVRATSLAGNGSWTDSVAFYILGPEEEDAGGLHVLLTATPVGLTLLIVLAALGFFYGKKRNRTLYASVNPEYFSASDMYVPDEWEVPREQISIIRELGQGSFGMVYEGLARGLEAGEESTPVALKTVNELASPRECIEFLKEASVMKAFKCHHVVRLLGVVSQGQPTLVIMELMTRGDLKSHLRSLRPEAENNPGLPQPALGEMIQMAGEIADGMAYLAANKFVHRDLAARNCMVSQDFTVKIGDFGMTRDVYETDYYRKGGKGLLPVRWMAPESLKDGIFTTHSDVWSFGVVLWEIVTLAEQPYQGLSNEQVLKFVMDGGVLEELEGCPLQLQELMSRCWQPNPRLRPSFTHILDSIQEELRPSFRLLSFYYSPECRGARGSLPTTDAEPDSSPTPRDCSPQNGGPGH

PAK6 (human) = PAK6 (human) (UniProt Q9NQU5)
CSNK1D (human) = CSNK1D (human) (UniProt P48730)
DYRK2 (human) = DYRK2 (human) (UniProt Q92630)
PKN2 (human) = PKN2 (human) (UniProt Q16513)
PKN2 (human), sequence (Q16513 whole entry, looked up): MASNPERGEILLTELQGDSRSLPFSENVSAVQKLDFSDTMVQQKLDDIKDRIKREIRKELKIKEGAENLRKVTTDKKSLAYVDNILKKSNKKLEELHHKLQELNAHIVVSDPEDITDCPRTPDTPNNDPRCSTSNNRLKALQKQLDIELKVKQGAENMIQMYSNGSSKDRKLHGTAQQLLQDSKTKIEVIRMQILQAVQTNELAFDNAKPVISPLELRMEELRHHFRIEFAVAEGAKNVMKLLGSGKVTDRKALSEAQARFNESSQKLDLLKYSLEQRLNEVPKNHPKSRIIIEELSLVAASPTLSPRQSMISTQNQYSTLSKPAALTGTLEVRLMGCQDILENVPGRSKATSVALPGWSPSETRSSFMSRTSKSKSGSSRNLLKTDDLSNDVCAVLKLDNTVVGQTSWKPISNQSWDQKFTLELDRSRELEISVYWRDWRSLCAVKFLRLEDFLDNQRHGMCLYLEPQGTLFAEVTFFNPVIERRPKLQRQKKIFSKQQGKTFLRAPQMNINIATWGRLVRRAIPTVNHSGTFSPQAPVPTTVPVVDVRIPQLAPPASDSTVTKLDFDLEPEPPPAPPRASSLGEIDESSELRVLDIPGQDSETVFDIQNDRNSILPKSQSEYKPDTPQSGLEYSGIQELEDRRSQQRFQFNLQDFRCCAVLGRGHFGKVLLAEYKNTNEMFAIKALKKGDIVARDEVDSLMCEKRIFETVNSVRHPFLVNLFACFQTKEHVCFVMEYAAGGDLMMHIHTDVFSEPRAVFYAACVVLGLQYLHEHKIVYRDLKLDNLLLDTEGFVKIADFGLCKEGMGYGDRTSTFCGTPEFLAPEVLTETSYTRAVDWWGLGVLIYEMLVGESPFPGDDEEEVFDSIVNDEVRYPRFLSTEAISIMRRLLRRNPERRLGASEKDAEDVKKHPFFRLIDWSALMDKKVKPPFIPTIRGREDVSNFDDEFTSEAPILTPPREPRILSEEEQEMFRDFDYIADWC

FGFR1 (human) = FGFR1 (human) (UniProt P11362)
HIPK2 (human) = HIPK2 (human) (UniProt Q9H2X6)
PHKG1 (human) = PHKG1 (human) (UniProt Q16816)
RPS6KA3 KD1 KD2 (human) = RPS6KA3 KD1 KD2 (human) (UniProt P51812)
BRSK2 (human) = BRSK2 (human) (UniProt Q8IWQ3)
PRKAA1 or PRKAA2 (rat) = conditions: accession and sequence are those of the human protein
MARK3 (human) = MARK3 (human) (UniProt P27448)
MAPK9 (human) = MAPK9 (human) (UniProt P45984); conditions: compound 1.0 µM
PIM1 (human) = PIM1 (human) (UniProt P11309)

## CC(C)n1nc(-c2cc3cc(O)ccc3[nH]2)c2c(N)ncnc21
PI4KA (human)
  IC50: > 10 µM
PIK3C2B (human)
  IC50: 0.0829 µM
PIK3C2A (human)
  IC50: 0.866 µM
PI4KB (human)
  IC50: 2.13 µM
PIK3C3 (human)
  IC50: > 10 µM
PRKCZ (human); compound 1.0 µM
  per cent of control: 91%
PRKCZ (human); compound 10.0 µM
  per cent of control: 51%
[1]; compound 1.0 µM
  per cent of control: 85%
[1]; compound 10.0 µM
  per cent of control: 69%
MKNK1 (human); compound 1.0 µM
  per cent of control: 51%
MKNK1 (human); compound 10.0 µM
  per cent of control: 12%
MKNK2 (human); compound 1.0 µM
  per cent of control: 86%
MKNK2 (human); compound 10.0 µM
  per cent of control: 42%
DYRK3 (human); compound 1.0 µM
  per cent of control: 10%
DYRK3 (human); compound 10.0 µM
  per cent of control: 2%
MELK (human); compound 1.0 µM
  per cent of control: 26%
MELK (human); compound 10.0 µM
  per cent of control: 13%
NEK2 (human); compound 1.0 µM
  per cent of control: 86%
NEK2 (human); compound 10.0 µM
  per cent of control: 54%
PDPK1 (human); compound 1.0 µM
  per cent of control: 83% and 93%
PDPK1 (human); compound 10.0 µM
  per cent of control: 60% and 71%
CHEK2 (human); compound 1.0 µM
  per cent of control: 31%
CHEK2 (human); compound 10.0 µM
  per cent of control: 2%
CSK (human); compound 1.0 µM
  per cent of control: 52%
CSK (human); compound 10.0 µM
  per cent of control: 34%
RPS6KA5 KD1 KD2 (human); compound 1.0 µM
  per cent of control: 105%
RPS6KA5 KD1 KD2 (human); compound 10.0 µM
  per cent of control: 49%
DYRK1A (human); compound 1.0 µM
  per cent of control: 84%
DYRK1A (human); compound 10.0 µM
  per cent of control: 55%
CaMK1 (human); compound 1.0 µM
  per cent of control: 80%
CaMK1 (human); compound 10.0 µM
  per cent of control: 33%
PAK7 (human); compound 1.0 µM
  per cent of control: 69%
PAK7 (human); compound 10.0 µM
  per cent of control: 34%
INSRR (human); compound 1.0 µM
  per cent of control: 47%
INSRR (human); compound 10.0 µM
  per cent of control: 29%
PAK6 (human); compound 1.0 µM
  per cent of control: 80%
PAK6 (human); compound 10.0 µM
  per cent of control: 38%
CSNK1D (human); compound 1.0 µM
  per cent of control: 50%
CSNK1D (human); compound 10.0 µM
  per cent of control: 9%
DYRK2 (human); compound 1.0 µM
  per cent of control: 17%
DYRK2 (human); compound 10.0 µM
  per cent of control: 7%
PKN2 (human); compound 1.0 µM
  per cent of control: 68%
PKN2 (human); compound 10.0 µM
  per cent of control: 22%
FGFR1 (human); compound 1.0 µM
  per cent of control: 14%
FGFR1 (human); compound 10.0 µM
  per cent of control: 2%
HIPK2 (human); compound 1.0 µM
  per cent of control: 26%
HIPK2 (human); compound 10.0 µM
  per cent of control: 7%
PHKG1 (human); compound 1.0 µM
  per cent of control: 72%
PHKG1 (human); compound 10.0 µM
  per cent of control: 25%
RPS6KA3 KD1 KD2 (human); compound 1.0 µM
  per cent of control: 63%
RPS6KA3 KD1 KD2 (human); compound 10.0 µM
  per cent of control: 16%
BRSK2 (human); compound 1.0 µM
  per cent of control: 26%
BRSK2 (human); compound 10.0 µM
  per cent of control: 4%
PRKAA1 or PRKAA2 (rat); compound 1.0 µM
  per cent of control: 70%
PRKAA1 or PRKAA2 (rat); compound 10.0 µM
  per cent of control: 28%
MARK3 (human); compound 1.0 µM
  per cent of control: 67%
MARK3 (human); compound 10.0 µM
  per cent of control: 31%
MAPK9 (human)
  per cent of control: 103%
PIM1 (human); compound 1.0 µM
  per cent of control: 74%
PIM1 (human); compound 10.0 µM
  per cent of control: 21%
